According to patent US10364263B2, “Cyclic phosphates and cyclic phosphoramidates for the treatment of neurologic disorders” (Retrophin, Inc., priority 2015, dated 2019):

Tests used:
[1] = Stability in mouse hepatocytes; type: in vitro ADME; details: t1/2, Mouse Hepatocytes
Description: (§1) Stability in hepatocytes for select compounds disclosed in the application was evaluated in two species (mouse and human) according to the following procedure. Compounds and positive control samples were dissolved in 100% DMSO at 5 mM. Cryopreserved hepatocytes were thawed and resuspended in Hepatocyte Basal Medium (HBM-Lonza CC-3199) supplemented with CC-4182 (complete hepatocyte culture medium). Test compounds were diluted into cell suspension (1 million cells/ml) from the stock solutions to have a test compound concentration of 5 μM (0.1% DMSO). Incubation was performed in 24-well plates, at 37° C. in a DUBNOFF water bath, under low shaking. Each compound was tested at 6 time points, in duplicates (0, 15, 30, 60, 120 and 240 min). At each time point, an aliquot of 120 μl was taken and transferred to a 96-well deep plate. The reaction was stopped with the addition of one volume of 100% acetonitrile plus 0.1% formic acid and the appropriate internal standard. Then samples were centrifuged at 1100×g for 30 min at +4° C. and supernatants were transferred to a new 96-deepwell plate. Samples were evaporated under N2 and reconstituted in H2O/ACN 0.1% Formic Acid (98:2). Analysis was performed without a calibration curve (Acquity UPLC-Waters; Sciex API4000). Time 0 was obtained adding acetonitrile before addition of the test compound. […] The half-life (t1/2) expressed in hours is derived using Equation 1 as shown in Example 64.

[2] = Stability in human hepatocytes; type: in vitro ADME
Description: as §1

[3] = system: PANK2 silenced human neuroblastoma IMR32 cells (PANK2−/−); experiment: Coenzyme A assay in PANK2 silenced cells (LC-MS quantification of free CoA); type: cell-based; details: compound added twice (24 h + 24 h), relative to 0.1% DMSO controls
Outline: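 PANK2 shRNA-silenced IMR32 neuroblastoma cells were treated with compound (0.1% DMSO) for 24 h, then re-dosed with fresh compound for a further 24 h at 37 °C. TFA extracts of 1×10^6 cells were assayed for free CoA by LC-MS/MS (MRM 768.1→261.6/136.1). Results are given as fold change versus DMSO controls.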

[4] = Stability in mouse plasma; type: in vitro ADME; details: for t1/2, Mouse Plasma, Diastereoisomer B: 3 µM
Description: Compounds and positive control samples were dissolved in 100% DMSO at 3 mM. To investigate the stability of the test compounds in plasma, samples were made by diluting test compounds into plasma from the stock solutions to obtain a test compound concentration of 3 μM (0.1% DMSO). Before addition of a test compound, 990 μl of plasma were preincubated at 37° C. for 5 min in eppendorf. After addition of a test compound, 70 μl for each time point were transferred to a 96-deepwell plate, previously warmed at 37° C. in a DUBNOFF water bath. Each compound was tested at five time points, in duplicate (10, 20, 30, 40 and 60 min). At each time point, an aliquot of 50 μl was taken and transferred to a new 96-deepwell plate, and the reaction was stopped with 200 μl of 100% acetonitrile containing 0.1% formic acid and the appropriate internal standard. Then samples were centrifuged at 1100×g for 30 min at +4° C. and supernatants were transferred to a new 96-deepwell plate. Samples were evaporated under N2 and reconstituted in H2O/ACN 0.1% Formic Acid (98:2). Analysis was performed without a calibration curve (Acquity UPLC-Waters; SciexAPI4000). Time 0 was obtained by adding acetonitrile before addition of the test compound.

[5] = Stability in human plasma; type: in vitro ADME; details: 37° C.
Outline: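 Test compound at 3 μM (0.1% DMSO) was incubated in mouse or human plasma at 37 °C and sampled in duplicate at 0, 10, 20, 30, 40 and 60 min. Reactions were stopped with acetonitrile/formic acid containing internal standard. Remaining parent was measured by UPLC-MS/MS without a calibration curve.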

[6] = t1/2, Human Hepatocytes, Diastereoisomer A
[7] = t1/2, Human Hepatocytes, Diastereoisomer B
[8] = Diastereoisomer A (upfield shift in 31P NMR), 5 μM, 1 million cells/ml, 37° C., human hepatocytes, read-out: t1/2, Human Hepatocytes, Diastereoisomer A (converted)
[9] = human, plasma, Diastereoisomer A (upfield shift in 31P NMR), read-out: t1/2, Human Plasma, Diastereoisomer A (converted)
[10] = human, plasma, Diastereoisomer B, read-out: t1/2, Human Plasma, Diastereoisomer B (converted)

SMILES | half-life at 5 µM [2, 6] | PANK2−/− CoA (Fold Increase): fold increase in Coenzyme A (CoA) levels relative to controls [3] | half-life at 3 µM ([4]; mouse, plasma) | half-life at 3 µM [5, 9] | t1/2, Mouse Plasma, Diastereoisomer B ([4]; mouse, plasma) | half-life at 3 µM [5, 10] | other results
COC(=O)[C@H](C)NP1(=O)OCC(C)(C)[C@H](C(=O)NCCC(=O)OCc2cc(C)on2)O1 (stereo partly drawn) [compound 21, (2S)-methyl 2-(((4R)-5,5-dimethyl-4-((3-((5-methylisoxazol-3-yl)methoxy)-3-oxopropyl)carbamoyl)-2-oxido-1,3,2-dioxaphosphinan-2-yl)amino)propanoate] | 70.8 min | – | – | – | – | – | half-life at 5 µM ([1]; Diastereoisomer A): < 15 min; half-life at 5 µM ([1]; Diastereoisomer B): < 15 min; half-life at 5 µM [2, 7]: 40.2 min
COC(=O)CCNC(=O)[C@@H]1OP(=O)(OCOC(=O)NCCSC(=O)C(C)(C)C)OCC1(C)C (stereo partly drawn) [2-143, methyl 3-((4R)-5,5-dimethyl-2-oxido-2-((((2-(pivaloylthio)ethyl)carbamoyl)oxy)methoxy)-1,3,2-dioxaphosphinane-4-carboxamido)propanoate] | 25.2 min | 1.39 Fold Increase | – | – | – | – | half-life at 5 µM [2, 7]: 19.2 min
COC(=O)CCNC(=O)[C@@H]1OP(=O)(Oc2ccc(F)cc2)OCC1(C)C (stereo partly drawn) [2-118, methyl 3-((4R)-2-(4-fluorophenoxy)-5,5-dimethyl-2-oxido-1,3,2-dioxaphosphinane-4-carboxamido)propanoate] | – | 1.38 Fold Increase | – | – | – | – | half-life at 5 µM [2, 8]: 33 min; half-life at 5 µM ([2]; Diastereoisomer B, 5 μM, 1 million cells/ml, 37° C., human hepatocytes, read-out: t1/2, Human Hepatocytes, Diastereoisomer B (converted)): 36 min
COC(=O)CCNC(=O)[C@@H]1OP(=O)(OCOC(=O)c2ccns2)OCC1(C)C (stereo partly drawn) [Compound No. 2-140, (((4R)-4-((3-methoxy-3-oxopropyl)carbamoyl)-5,5-dimethyl-2-oxido-1,3,2-dioxaphosphinan-2-yl)oxy)methyl isothiazole-5-carboxylate] | < 15 min | 37.02 Fold Increase | – | – | – | – | half-life at 5 µM [2, 7]: < 15 min
COC(=O)CCNC(=O)[C@@H]1OP(=O)(OCOC(=O)c2scnc2C)OCC1(C)C (stereo partly drawn) [Compound No. 2-139, (((4R)-4-((3-methoxy-3-oxopropyl)carbamoyl)-5,5-dimethyl-2-oxido-1,3,2-dioxaphosphinan-2-yl)oxy)methyl 4-methylthiazole-5-carboxylate] | 30.6 min | 44.21 Fold Increase | – | – | – | – | half-life at 5 µM [2, 7]: 15.6 min
COC(=O)CCNC(=O)[C@@H]1O[P@@](=O)(Oc2ccc(C(F)(F)F)cc2)OCC1(C)C [2-119, methyl 3-((2S,4R)-5,5-dimethyl-2-oxido-2-(4-(trifluoromethyl)phenoxy)-1,3,2-dioxaphosphinane-4-carboxamido)propanoate] | – | 1.67 Fold Increase | – | – | – | – | half-life at 5 µM [2, 8]: 30.6 min
COC(=O)CCNC(=O)[C@@H]1OP(=O)(OCOC(=O)CN2CCN(C(C)=O)CC2)OCC1(C)C (stereo partly drawn) [compound 80, methyl 3-((4R)-2-((2-(4-acetylpiperazin-1-yl)acetoxy)methoxy)-5,5-dimethyl-2-oxido-1,3,2-dioxaphosphinane-4-carboxamido)propanoate] | – | 1.48 Fold Increase | < 9.6 min | 40.2 min | – | – | –
COC(=O)CCNC(=O)[C@@H]1OP(=O)(NCc2ccncc2)OCC1(C)C (stereo partly drawn) [compound 125, methyl 3-((4R)-5,5-dimethyl-2-oxido-2-((pyridin-4-ylmethyl)amino)-1,3,2-dioxaphosphinane-4-carboxamido)propanoate] | – | 1.99 Fold Increase | – | – | – | – | half-life at 3 µM ([4]; Diastereoisomer A (upfield shift in 31P NMR), 3 μM, 37° C., mouse plasma, read-out: t1/2, Mouse Plasma, Diastereoisomer A): < 9.6 min; half-life at 3 µM ([5]; Diastereoisomer A (upfield shift in 31P NMR), read-out: t1/2, Human Plasma, Diastereoisomer A (converted)): > 60 min
Cc1cc(COC(=O)CCNC(=O)[C@@H]2OP(=O)(OCOC(=O)C(C)(C)C)OCC2(C)C)no1 (single isomer, unassigned) [Compound No. 74] | – | 176 Fold Increase | < 9.6 min | 46.8 min | <9.6 min | < 9.6 min | –
CC(C)(C)OC(=O)CCNC(=O)[C@@H]1OP(=O)(OCOC(=O)C(C)(C)C)OCC1(C)C (stereo partly drawn) [Compound No. 75, (((4R)-4-((3-(tert-butoxy)-3-oxopropyl)carbamoyl)-5,5-dimethyl-2-oxido-1,3,2-dioxaphosphinan-2-yl)oxy)methyl pivalate] | – | 1.52 Fold Increase | < 9.6 min | > 60 min | <9.6 min | < 9.6 min | –
COC(=O)CCNC(=O)[C@@H]1OP(=O)(N[C@@H](C)C(=O)OCCc2scnc2C)OCC1(C)C (stereo partly drawn) [compound 31, methyl 3-((4R)-5,5-dimethyl-2-(((S)-1-(2-(4-methylthiazol-5-yl)ethoxy)-1-oxopropan-2-yl)amino)-2-oxido-1,3,2-dioxaphosphinane-4-carboxamido)propanoate] | – | 1.1 Fold Increase | < 9.6 min | > 60 min | <9.6 min | > 60 min | –
COC(=O)CCNC(=O)[C@@H]1OP(=O)(OCOC(=O)c2cnccn2)OCC1(C)C (stereo partly drawn) [compound 86, (((4R)-4-((3-methoxy-3-oxopropyl)carbamoyl)-5,5-dimethyl-2-oxido-1,3,2-dioxaphosphinan-2-yl)oxy)methyl pyrazine-2-carboxylate] | – | 2.45 Fold Increase | < 9.6 min | < 9.6 min | <9.6 min | < 9.6 min | –
COC(=O)CCNC(=O)[C@@H]1OP(=O)(OCOC(=O)C2(C)CN(C(=O)OC(C)(C)C)C2)OCC1(C)C (stereo partly drawn) [Compound No. 85, 1-(tert-butyl) 3-((((4R)-4-((3-methoxy-3-oxopropyl)carbamoyl)-5,5-dimethyl-2-oxido-1,3,2-dioxaphosphinan-2-yl)oxy)methyl) 3-methylazetidine-1,3-dicarboxylate] | – | 216.8 Fold Increase | < 9.6 min | < 9.6 min | <9.6 min | < 9.6 min | –
Cc1cc(COC(=O)CCNC(=O)[C@@H]2OP(=O)(N[C@@H](C)C(=O)OCCc3ccccc3)OCC2(C)C)no1 (stereo partly drawn) [compound 40, (5-methylisoxazol-3-yl)methyl 3-((4R)-5,5-dimethyl-2-oxido-2-(((S)-1-oxo-1-phenethoxypropan-2-yl)amino)-1,3,2-dioxaphosphinane-4-carboxamido)propanoate] | – | 2.77 Fold Increase | < 9.6 min | > 60 min | <9.6 min | > 60 min | –
COC(=O)[C@H](C)N[P@@]1(=O)OCC(C)(C)[C@H](C(=O)NCCC(=O)OCc2cn(C)cn2)O1 [compound 22, methyl ((2R,4R)-5,5-dimethyl-4-((3-((1-methyl-1H-imidazol-4-yl)methoxy)-3-oxopropyl)carbamoyl)-2-oxido-1,3,2-dioxaphosphinan-2-yl)-L-alaninate] | > 240 min | – | – | – | – | – | half-life at 5 µM ([1]; Diastereoisomer A): 37.2 min
